Row | logP | Compound
1 | 1.43 | COc1ccc(CNC2CCOC2=O)cc1 (centres undefined)
2 | 2.43 | O=C1OCCC1N1CCC(c2ccccc2)CC1 (centres undefined)
3 | 1.18 | COc1ccc(Cl)cc1N1CCN(C2CCOC2=O)CC1 (centres undefined)
4 | 1.83 | O=C1OCCC1NCc1ccccc1C(F)(F)F (centres undefined)
5 | 1.2 | O=C1OCCC1N1Cc2ccccc2C1 (centres undefined)
6 | 2.53 | COc1ccc(CCNC(C)=C2CCOC2=O)cc1OC
7 | 2.94 | O=C1OCCC1N1CCN(c2cccc(C(F)(F)F)c2)CC1 (centres undefined)
8 | 2.05 | O=C1OCCC1N1CCN(c2ccc(F)cc2)CC1 (centres undefined)
9 | 3.28 | O=C1OCCC1N1CCN(C(c2ccccc2)c2ccccc2)CC1 (centres undefined)
10 | 1.97 | O=C1OCCC1NCc1ccc(Cl)cc1 (centres undefined)
11 | 1.44 | COc1ccccc1N1CCN(C2CCOC2=O)CC1 (centres undefined)
12 | 0.8 | O=C(Cc1ccccc1)NC1CCOC1=O (centres undefined)
13 | 1.32 | O=C1OCCC1Oc1ccc(Oc2ccccc2)cc1 (centres undefined)
14 | 1.76 | CC1CC(NCc2ccccc2)C(=O)O1 (centres undefined)
15 | 2.29 | COc1cccc(N2CCN(C3CCOC3=O)CC2)c1 (centres undefined)
16 | 2.21 | CC(NCc1ccccc1)=C1CCOC1=O
17 | 1.56 | CC1CC(N2CCN(c3ccccc3)CC2)C(=O)O1 (centres undefined)
18 | 1.39 | Cc1cccc(C)c1NC1CCOC1=O (centres undefined)
19 | 1.83 | COc1cc2c(cc1OC)CN(C1CCOC1=O)CC2 (centres undefined)
20 | 1.6 | O=C1OCCC1N1CCc2ccccc2C1 (centres undefined)
21 | 1.11 | O=C1OCCC1N1C(=O)c2ccccc2C1=O (centres undefined)
22 | 1.65 | O=C1OCCC1N1CCN(c2ccccc2)CC1 (centres undefined)
23 | 2.27 | CC(Nc1ccccc1)=C1CCOC1=O
24 | 0.93 | NC(=O)c1ccccc1OC1CCOC1=O (centres undefined)
25 | 1.46 | COc1ccc(N2CCN(C3CCOC3=O)CC2)cc1 (centres undefined)
26 | 0.84 | O=C(NC1CCOC1=O)c1ccccc1 (centres undefined)
27 | 1.22 | O=C1CC(N2CCN(c3ccccc3)CC2)CO1 (centres undefined)
28 | 3.12 | COc1cc2c(cc1OC)C(c1ccccc1)N(C1CCOC1=O)CC2 (centres undefined)

Row | Compound | logP
29 | O=C1OCCC1NCc1ccccc1 (centres undefined) | 1.47

Source: the SangsterLogP compilation
